From patent US20190224153A1, “L-DOPA DERIVATIVES FOR THE TREATMENT OF NEUROLOGICAL DISEASES” (BERLIREM GMBH, priority 2016, published 2019)

Assays:
[1] = Enzymatic cleavage of L-DOPA esters in human plasma (ex vivo); conditions: pH 7.4, 37° C., after 2 hours, n=3
Description: After 2, 15, 30, 45, 60 and 120 min 200 μL sample were taken, immediately deproteinized (200 μL 0.4N PCA), precipitated (200 μL 0.1% formic acid) and centrifuged. […] For purpose of comparison L-Dopa Ethyl Ester was investigated under same conditions.

[2] = Stability against hydrolytic cleavage, aprotic versus aqueous solutions; type: physicochemical; conditions: aprotic solutions compared to aqueous solutions
Excerpt: It is an additional aspect of the invention that the high solubility of the L-DOPA ester in aprotic solvents suitable for parenteral application (such as e.g. N-Methylpyrrolidone, Polysorbat 80, Dimethylacetamide, Solutol HS 15, Glycerol, Ethanol) also relates to L-DOPA esters known before the application date of WO 2016/155888 A1, in particular L-DOPA ethyl ester described in WO 2012/079072 A2 (Heller et al.). […] Moreover the stability is much higher even at pH-values of 5-8. L-DOPA ethyl ester solutions in aprotic solvents suitable for parenteral application could therefore solve tolerability problems known from earlier attempts to use L-DOPA ethyl ester in the treatment of neurological diseases.

N[C@@H](Cc1ccc(O)c(O)c1)C(=O)OCC(O)CO (stereo partly drawn) [L-DOPA Glycerin ester]
converted to L-Dopa [1]: 60%

CCOC(=O)[C@@H](N)Cc1ccc(O)c(O)c1 [L-DOPA Ethyl Ester]
converted to L-Dopa [1]: 50%
stability against hydrolytic cleavage [2]: higher stability against hydrolytic cleavage compared to aqueous solutions
